{"source": "patent US20260158014A1", "about": "“METHODS OF ADMINISTERING VOXELOTOR” (Global Blood Therapeutics, Inc., priority 2021, published 2026)", "key": {"OATP1B3": {"molecular_target": "OATP1B3 (Homo sapiens, UniProt Q9NPD5)", "sequence (Q9NPD5 whole entry, species assumed)": "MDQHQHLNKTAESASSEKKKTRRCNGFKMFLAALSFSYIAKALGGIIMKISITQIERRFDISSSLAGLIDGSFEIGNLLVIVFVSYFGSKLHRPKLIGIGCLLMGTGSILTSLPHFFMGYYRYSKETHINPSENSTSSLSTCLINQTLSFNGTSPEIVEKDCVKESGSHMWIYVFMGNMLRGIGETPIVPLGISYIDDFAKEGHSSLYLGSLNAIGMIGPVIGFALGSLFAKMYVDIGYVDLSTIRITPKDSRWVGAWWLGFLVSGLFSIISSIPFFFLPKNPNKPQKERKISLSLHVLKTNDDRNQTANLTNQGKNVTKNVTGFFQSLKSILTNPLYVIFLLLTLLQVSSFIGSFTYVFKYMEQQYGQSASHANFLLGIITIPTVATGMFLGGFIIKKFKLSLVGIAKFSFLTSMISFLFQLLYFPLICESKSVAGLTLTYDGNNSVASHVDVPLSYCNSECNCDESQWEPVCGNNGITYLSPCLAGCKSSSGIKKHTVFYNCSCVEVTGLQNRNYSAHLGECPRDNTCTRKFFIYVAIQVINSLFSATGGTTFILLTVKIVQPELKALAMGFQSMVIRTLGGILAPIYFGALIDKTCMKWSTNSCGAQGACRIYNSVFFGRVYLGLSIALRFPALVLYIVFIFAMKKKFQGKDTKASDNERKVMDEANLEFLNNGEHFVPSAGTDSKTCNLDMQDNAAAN", "assay": "In vitro transporter study", "type": "in vitro ADME"}, "CYP2C9": {"molecular_target": "T1, CYP2C9 (Homo sapiens, UniProt P11712)", "T1 construct": "endogenous in cells; host or cells: healthy human subjects (in vivo)", "T1 sequence (P11712 whole entry)": "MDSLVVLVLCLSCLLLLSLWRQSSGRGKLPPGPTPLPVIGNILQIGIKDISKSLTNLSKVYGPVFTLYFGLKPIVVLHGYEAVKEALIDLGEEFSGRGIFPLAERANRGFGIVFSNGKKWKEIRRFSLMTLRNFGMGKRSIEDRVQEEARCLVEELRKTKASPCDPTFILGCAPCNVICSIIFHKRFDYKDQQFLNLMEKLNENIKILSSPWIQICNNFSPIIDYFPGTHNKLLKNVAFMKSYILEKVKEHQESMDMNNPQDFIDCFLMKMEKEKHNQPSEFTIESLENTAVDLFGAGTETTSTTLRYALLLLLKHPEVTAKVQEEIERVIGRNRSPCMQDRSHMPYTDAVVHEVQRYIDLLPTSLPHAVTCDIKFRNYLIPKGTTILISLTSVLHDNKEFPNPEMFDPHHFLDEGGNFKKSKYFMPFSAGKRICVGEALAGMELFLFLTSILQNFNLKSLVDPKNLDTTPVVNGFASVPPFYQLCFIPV", "assay": "Clinical probe-substrate DDI study: S-warfarin", "type": "in vivo", "procedure": "(§1) The effect of voxelotor on the pharmacokinetics (PK) of a single dose of caffeine, warfarin sodium, omeprazole, and midazolam hydrochloride, which are probe substrates for cytochrome P450 (CYP)1A2, CYP2C9, CYP2C19, and CYP3A4, respectively, were studied in healthy subjects. During Period 1, subjects received a single dose of caffeine 100 mg, warfarin sodium 10 mg+vitamin K 10 mg, omeprazole 20 mg, and midazolam hydrochloride 2 mg on Day 1. During Period 2, subjects received voxelotor 900 mg QD on Days 1 and 2 followed by 600 mg QD on Day 3, a single dose of caffeine 100 mg, warfarin sodium 10 mg+vitamin K 10 mg, omeprazole 20 mg, and midazolam hydrochloride 2 mg on Day 4, and voxelotor 600 mg QD on Days 4 through 7.\n(§2) Whole blood and plasma concentrations of voxelotor and plasma concentrations of caffeine, paraxanthine, S-warfarin, omeprazole, 5-hydroxyomeprazole, midazolam, and 1-hydroxymidazolam were determined using validated assays."}, "[1]": {"test_system": "patients with SCD aged 4 to 11 years", "assay": "Open-label Phase 2 trial (part C): safety assessment (TEAEs)"}, "OATP1A2": {"molecular_target": "OATP1A2 (Homo sapiens, UniProt P46721)", "sequence (P46721 whole entry, species assumed)": "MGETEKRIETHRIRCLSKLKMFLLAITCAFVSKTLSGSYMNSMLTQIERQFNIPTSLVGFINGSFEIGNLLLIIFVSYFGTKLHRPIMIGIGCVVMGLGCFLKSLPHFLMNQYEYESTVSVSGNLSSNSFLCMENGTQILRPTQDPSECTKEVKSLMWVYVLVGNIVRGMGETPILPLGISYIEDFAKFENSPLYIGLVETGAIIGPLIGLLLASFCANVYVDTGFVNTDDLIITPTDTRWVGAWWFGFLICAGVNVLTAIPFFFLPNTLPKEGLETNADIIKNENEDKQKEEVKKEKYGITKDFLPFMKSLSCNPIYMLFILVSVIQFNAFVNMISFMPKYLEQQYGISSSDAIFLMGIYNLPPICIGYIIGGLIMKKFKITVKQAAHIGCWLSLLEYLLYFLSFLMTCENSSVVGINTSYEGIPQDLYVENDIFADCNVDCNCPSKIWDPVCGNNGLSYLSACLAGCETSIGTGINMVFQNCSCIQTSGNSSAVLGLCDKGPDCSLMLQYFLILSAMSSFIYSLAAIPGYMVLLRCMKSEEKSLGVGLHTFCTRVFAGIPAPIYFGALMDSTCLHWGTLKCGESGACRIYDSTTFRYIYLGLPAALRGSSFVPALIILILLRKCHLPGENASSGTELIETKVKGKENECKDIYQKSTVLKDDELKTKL", "assay": "In vitro transporter study", "type": "in vitro ADME"}, "rat": {"test_system": "rat", "assay": "Rat micronucleus assay", "conditions": "in vivo"}, "[2]": {"test_system": "bacterial reverse mutation", "assay": "Reverse mutation bacterial (Ames) test", "type": "cell-based"}, "[3]": {"assay": "Clinical pharmacokinetics after oral administration", "type": "in vivo, human"}, "[4]": {"test_system": "patients with SCD aged 4 to 11 years", "assay": "Open-label Phase 2 trial (part C): Hb response and hemolysis markers", "type": "in vivo, human", "text": "Patients and treatment: Patients with SCD were screened at 15 study sites in the United States, Lebanon, and the United Kingdom. Key inclusion criteria included patients with SCD (homozygous sickle cell disease [HbSS] or HbSβ^0 genotypes), aged 4 to 11 years, and with hemoglobin (Hb) concentrations ≤10.5 g/dL at baseline. Concomitant hydroxyurea was allowed if the dose was stable for ≥3 months at enrollment, with no anticipated need for dose adjustment during the study. There was no eligibility requirement regarding prior VOCs. Patients who were receiving chronic red blood cell transfusion therapy, had received a transfusion in the past 30 days, or had been hospitalized for a VOC, acute chest syndrome, splenic sequestration crisis, or dactylitis within 14 days before providing informed consent were excluded.\nAll patients received dispersible voxelotor tablets. Patients aged 4 to 11 years received once-daily voxelotor weight-based-dosing (Table 1).\nStatistical analyses: All efficacy and safety assessments were summarized with descriptive statistics. Population PK analyses using nonlinear mixed-effects modeling were performed to characterize voxelotor PK in plasma and whole blood.\nPatients 4 to <12 years received tablets for oral suspension based on body weight at baseline. OXBRYTA doses of 600 mg, 900 mg, or 1,500 mg once daily were administered to patients weighing 10 kg to <20 kg, 20 kg to <40 kg, or ≥40 kg, respectively. Patients 12 to <17 years received OXBRYTA 1,500 mg once daily.\nPatients were included if their baseline hemoglobin (Hb) was <10.5 g/dL. Eligible patients on stable doses of hydroxyurea for at least 90 days were allowed to continue hydroxyurea therapy throughout the study.\nEfficacy was based on Hb response rate, which is defined as a Hb increase of >1 g/dL from baseline to Week 24."}, "OAT3": {"molecular_target": "OAT3 (Homo sapiens, UniProt Q8TCC7)", "sequence (Q8TCC7 whole entry, species assumed)": "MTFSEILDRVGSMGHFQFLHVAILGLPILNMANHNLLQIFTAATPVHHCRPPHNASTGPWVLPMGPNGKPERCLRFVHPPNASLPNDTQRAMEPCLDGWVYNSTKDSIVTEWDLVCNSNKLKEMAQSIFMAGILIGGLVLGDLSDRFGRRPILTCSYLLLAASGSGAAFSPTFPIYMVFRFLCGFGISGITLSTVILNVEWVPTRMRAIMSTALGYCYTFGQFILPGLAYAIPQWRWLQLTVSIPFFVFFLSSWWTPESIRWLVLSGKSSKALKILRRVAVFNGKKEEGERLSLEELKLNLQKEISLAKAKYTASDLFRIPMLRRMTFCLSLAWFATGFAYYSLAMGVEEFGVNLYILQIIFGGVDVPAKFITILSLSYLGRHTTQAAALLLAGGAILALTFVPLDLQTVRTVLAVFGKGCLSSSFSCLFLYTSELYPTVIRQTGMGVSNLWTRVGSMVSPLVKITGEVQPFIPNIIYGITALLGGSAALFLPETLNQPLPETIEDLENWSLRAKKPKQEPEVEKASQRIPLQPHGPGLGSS", "assay": "In vitro transporter study", "type": "in vitro ADME"}, "CYP2C19": {"molecular_target": "T2, CYP2C19 (Homo sapiens, UniProt P33261)", "T2 construct": "endogenous in cells; host or cells: healthy human subjects (in vivo)", "T2 sequence (P33261 whole entry)": "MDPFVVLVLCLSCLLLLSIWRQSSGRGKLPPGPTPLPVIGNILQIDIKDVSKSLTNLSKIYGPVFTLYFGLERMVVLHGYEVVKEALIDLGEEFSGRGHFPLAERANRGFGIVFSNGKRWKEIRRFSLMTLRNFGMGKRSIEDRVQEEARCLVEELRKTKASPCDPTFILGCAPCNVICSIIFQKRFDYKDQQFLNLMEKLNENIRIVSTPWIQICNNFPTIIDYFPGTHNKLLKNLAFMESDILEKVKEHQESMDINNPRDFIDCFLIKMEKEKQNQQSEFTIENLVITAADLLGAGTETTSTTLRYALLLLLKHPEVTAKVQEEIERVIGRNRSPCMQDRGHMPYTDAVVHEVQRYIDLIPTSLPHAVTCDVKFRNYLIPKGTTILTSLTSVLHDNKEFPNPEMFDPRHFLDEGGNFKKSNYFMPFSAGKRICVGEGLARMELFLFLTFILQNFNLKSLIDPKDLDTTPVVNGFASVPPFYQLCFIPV", "assay": "Clinical probe-substrate DDI study: omeprazole", "type": "in vivo", "procedure": "as §1, §2"}, "patients with SCD": {"test_system": "patients with SCD", "assay": "HOPE trial: safety", "type": "in vivo, human", "procedure": "The safety of OXBRYTA was evaluated in the HOPE trial based on data from 88 patients with SCD who received OXBRYTA 1,500 mg and 91 patients who received placebo orally once daily [see Clinical Studies (14.1)]. Seventy-four patients received OXBRYTA 1,500 mg once daily for ≥24 weeks, 65 patients for ≥48 weeks, and 63 patients completed the 72-week treatment period.\nIn patients who received OXBRYTA 1,500 mg once daily, the median age was 24 years (range:12 to 59 years); 65% female; 66% Black or African American and 23% Arab/Middle Eastern; and 65% receiving hydroxyurea at baseline."}, "CYP1A2": {"molecular_target": "CYP1A2 (Homo sapiens, UniProt P05177)", "sequence (P05177 whole entry)": "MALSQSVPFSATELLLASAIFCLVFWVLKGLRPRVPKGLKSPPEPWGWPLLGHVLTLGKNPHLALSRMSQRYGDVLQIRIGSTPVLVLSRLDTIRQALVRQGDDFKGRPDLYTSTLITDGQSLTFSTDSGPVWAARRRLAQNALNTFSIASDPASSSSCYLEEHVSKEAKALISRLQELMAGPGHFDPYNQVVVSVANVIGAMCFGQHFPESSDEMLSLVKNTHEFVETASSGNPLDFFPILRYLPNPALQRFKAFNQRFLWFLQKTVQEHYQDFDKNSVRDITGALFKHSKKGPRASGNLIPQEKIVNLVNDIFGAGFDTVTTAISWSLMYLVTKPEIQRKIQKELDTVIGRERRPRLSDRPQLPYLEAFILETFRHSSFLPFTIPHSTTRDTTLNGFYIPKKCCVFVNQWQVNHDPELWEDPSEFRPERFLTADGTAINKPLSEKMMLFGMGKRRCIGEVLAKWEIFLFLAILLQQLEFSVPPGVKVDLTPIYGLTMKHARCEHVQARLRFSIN", "assay": "Clinical probe-substrate DDI study: caffeine", "type": "in vivo", "procedure": "as §1, §2"}, "[5]": {"conditions": "4 to 11 years, n=45, listed as OXBRYTA"}, "[6]": {"conditions": "4 to 11 years, weight-based dosing"}}, "data": [{"smiles": "CC(C)n1nccc1-c1ncccc1COc1cccc(O)c1C=O", "note": "[voxelotor, 2-hydroxy-6-((2-(1-isopropyl-1H-pyrazol-5-yl)pyridin-3-yl)methoxy)benzaldehyde]", "values": [{"measurement": "OATP1B3 inhibition", "setting": "OATP1B3", "result": "not an inhibitor"}, {"measurement": "substrate of OATP1B3", "setting": "OATP1B3", "result": "not a substrate"}, {"measurement": "effect of voxelotor on PK of CYP2C9 probe substrate S-warfarin", "setting": "CYP2C9; healthy subjects, voxelotor 900/600 mg QD, warfarin sodium 10 mg", "result": "no clinically meaningful effect"}, {"measurement": "CYP2C9 inhibition in vivo", "setting": "CYP2C9; human, in vivo", "result": "not"}, {"measurement": "Any drug-related TEAE", "setting": "[1]; 4-11 years, n=45, week 24", "result": "22 (48.9) n (%)"}, {"measurement": "Drug-related AE: Abdominal pain", "setting": "[1]; 4-11 years, n=45, week 24", "result": "4 (8.9) n (%)"}, {"measurement": "Drug-related AE: Diarrhea", "setting": "[1]; 4-11 years, n=45, week 24", "result": "5 (11.1) n (%)"}, {"measurement": "Drug-related AE: Headache", "setting": "[1]; 4-11 years, n=45, week 24", "result": "2 (4.4) n (%)"}, {"measurement": "Drug-related AE: Hypersplenism", "setting": "[1]; 4-11 years, n=45, week 24", "result": "2 (4.4) n (%)"}, {"measurement": "Drug-related AE: Pyrexia", "setting": "[1]; 4-11 years, n=45, week 24", "result": "2 (4.4) n (%)"}, {"measurement": "Drug-related AE: Rash", "setting": "[1]; 4-11 years, n=45, week 24", "result": "5 (11.1) n (%)"}, {"measurement": "Drug-related AE: Transaminases increased", "setting": "[1]; 4-11 years, n=45, week 24", "result": "4 (8.9) n (%)"}, {"measurement": "Drug-related AE: Vomiting", "setting": "[1]; 4-11 years, n=45, week 24", "result": "5 (11.1) n (%)"}, {"measurement": "tolerability of weight-based dosing", "setting": "[1]; 4 to 11 years, median exposure 43.3 weeks", "result": "well tolerated"}, {"measurement": "deaths", "setting": "[1]; 4 to 11 years, n=45", "result": "no deaths"}, {"measurement": "drug-related TEAE diarrhea, patients", "setting": "[1]; 4 to 11 years, n=45", "result": 11, "unit": "%"}, {"measurement": "drug-related TEAE rash, patients", "setting": "[1]; 4 to 11 years, n=45", "result": 11, "unit": "%"}, {"measurement": "drug-related TEAE vomiting, patients", "setting": "[1]; 4 to 11 years, n=45", "result": 11, "unit": "%"}, {"measurement": "pyrexia, patients (non-SCD related TEAE / adverse reaction)", "setting": "[1]; 4 to 11 years, n=45", "result": 35.6, "unit": "%"}, {"measurement": "rash, patients (non-SCD related TEAE / adverse reaction)", "setting": "[1]; 4 to 11 years, n=45", "result": 20, "unit": "%"}, {"measurement": "vomiting, patients (non-SCD related TEAE / adverse reaction)", "setting": "[1]; 4 to 11 years, n=45", "result": 33.3, "unit": "%"}, {"measurement": "pyrexia, patients (non-SCD related TEAE / adverse reaction)", "setting": "[1]; [5]", "result": 36, "unit": "%"}, {"measurement": "vomiting, patients (non-SCD related TEAE / adverse reaction)", "setting": "[1]; [5]", "result": 33, "unit": "%"}, {"measurement": "abdominal pain, patients (adverse reaction)", "setting": "[1]; 4 to <12 years, n=45", "result": 18, "unit": "%"}, {"measurement": "diarrhea, patients (adverse reaction)", "setting": "[1]; 4 to <12 years, n=45", "result": 18, "unit": "%"}, {"measurement": "headache, patients (adverse reaction)", "setting": "[1]; 4 to <12 years, n=45", "result": 18, "unit": "%"}, {"measurement": "patients who discontinued voxelotor due to adverse events", "setting": "[1]; of 45 patients, 2 drug-related, 2 unrelated", "result": 4, "unit": "patients"}, {"measurement": "substrate of OATP1A2", "setting": "OATP1A2", "result": "not a substrate"}, {"measurement": "genotoxicity, rat micronucleus assay", "setting": "rat", "result": "not genotoxic"}, {"measurement": "genotoxicity, Ames test", "setting": "[2]", "result": "not genotoxic"}, {"measurement": "time to steady-state after repeated administration", "setting": "[3]; patients with SCD", "result": "≤ 8", "unit": "days"}, {"measurement": "dose linearity of PK", "setting": "[3]; single or multiple doses, whole blood, plasma, RBCs", "result": "linear"}, {"measurement": "mean change in Hb from baseline at week 24", "setting": "[4]; 4 to 11 years, once-daily weight-based 600/900/1500 mg dispersible tablets, n=34", "result": 1.0, "unit": "g/dL"}, {"measurement": "patients with Hb response (>1.0 g/dL increase from baseline) at week 2", "setting": "[4]; [6]", "result": 54.5, "unit": "%"}, {"measurement": "patients with an increase in Hb of any magnitude from baseline at week 24", "setting": "[4]; [6]", "result": 82, "unit": "%"}, {"measurement": "patients with >2.0 g/dL increase in Hb from baseline at week 24", "setting": "[4]; 4 to 11 years, weight-based dosing, n=7/34", "result": 21, "unit": "%"}, {"measurement": "patients with >1.5 g/dL increase in Hb from baseline at week 24", "setting": "[4]; 4 to 11 years, weight-based dosing, n=12/34", "result": 35, "unit": "%"}, {"measurement": "patients with Hb response (increase >1.0 g/dL from baseline) at week 24", "setting": "[4]; 4 to 11 years, weight-based dosing, n=34", "result": 47.1, "unit": "%"}, {"measurement": "Hb response rate (Hb increase >1 g/dL from baseline to Week 24)", "setting": "[4]; patients 4 to <12 years who took at least one dose (16/45)", "result": 36, "unit": "%"}, {"measurement": "mean percent change from baseline in indirect bilirubin", "setting": "[4]; week 24, n=28", "result": "−38.6", "unit": "%"}, {"measurement": "mean percent change from baseline in percent reticulocyte count", "setting": "[4]; week 24, n=31", "result": "−3.25", "unit": "%"}, {"measurement": "mean percent change from baseline in lactate dehydrogenase", "setting": "[4]; week 24, n=32", "result": "−2.6", "unit": "%"}, {"measurement": "OAT3 inhibition", "setting": "OAT3", "result": "not an inhibitor"}, {"measurement": "effect of voxelotor on PK of CYP2C19 probe substrate omeprazole", "setting": "CYP2C19; healthy subjects, voxelotor 900/600 mg QD, omeprazole 20 mg", "result": "no clinically meaningful effect"}, {"measurement": "CYP2C19 inhibition in vivo", "setting": "CYP2C19; human, in vivo", "result": "not"}, {"measurement": "serious adverse reactions, patients", "setting": "patients with SCD; 1,500 mg once daily, 3/88", "result": 3, "unit": "%"}, {"measurement": "permanent discontinuation due to an adverse reaction (Grades 1-4), patients", "setting": "patients with SCD; 1,500 mg once daily, 4/88", "result": 5, "unit": "%"}, {"measurement": "Adverse reaction: Abdominal Pain", "setting": "patients with SCD; 1,500 mg, N=88", "result": 23, "unit": "%"}, {"measurement": "Adverse reaction: Diarrhea", "setting": "patients with SCD; 1,500 mg, N=88", "result": 23, "unit": "%"}, {"measurement": "Adverse reaction: Headache", "setting": "patients with SCD; 1,500 mg, N=88", "result": 32, "unit": "%"}, {"measurement": "Adverse reaction: Nausea", "setting": "patients with SCD; 1,500 mg, N=88", "result": 19, "unit": "%"}, {"measurement": "Adverse reaction: Pyrexia", "setting": "patients with SCD; 1,500 mg, N=88", "result": 15, "unit": "%"}, {"measurement": "Adverse reaction: Rash", "setting": "patients with SCD; 1,500 mg, N=88", "result": 15, "unit": "%"}, {"measurement": "dosage modifications (dose reduction or dosing interruption) due to an adverse reaction, patients", "setting": "patients with SCD; 42/88", "result": 48, "unit": "%"}, {"measurement": "effect of voxelotor on PK of CYP1A2 probe substrate caffeine", "setting": "CYP1A2; healthy subjects, voxelotor 900/600 mg QD, caffeine 100 mg", "result": "no clinically meaningful effect"}, {"measurement": "CYP1A2 inhibition in vivo", "setting": "CYP1A2; human, in vivo", "result": "not"}]}]}
